This experiment deals with L1210 leukemia ip in BDF1 mice, survival T/C. Briefly: NCI In Vivo Anticancer Drug Screen. Data for tumor model L1210 Leukemia (intraperitoneal) in B6D2F1 (BDF1) mice. As to conditions: endpoint: mean survival time, higher = longer survival. In a few lines: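 In this screen, tumor-bearing mice given compound are compared to those given vehicle, and their survival values are reported as a treated-to-control quotient.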

Setting [1] is: dose: 100.0 mg/kg/injection, schedule: Q04DX003 (ip), vehicle: saline with Tween-80.
Setting [2] is: dose: 400.0 mg/kg/injection, schedule: Q04DX003 (ip), vehicle: saline with Tween-80.
Where [3] appears, read: dose: 100.0 mg/kg/injection, schedule: Q04DX002 (ip), vehicle: saline with Tween-80.
Where [4] appears, read: dose: 200.0 mg/kg/injection, schedule: Q04DX002 (ip), vehicle: saline with Tween-80.
The mark [5] stands for this setting: dose: 400.0 mg/kg/injection, schedule: Q04DX002 (ip), vehicle: saline with Tween-80.
Setting [6] is: dose: 200.0 mg/kg/injection, schedule: Q04DX003 (ip), vehicle: saline with Tween-80.
Where [7] appears, read: dose: 12.5 mg/kg/injection, schedule: Q01DX009 (ip), vehicle: saline.
[8] abbreviates: dose: 25.0 mg/kg/injection, schedule: Q01DX009 (ip), vehicle: saline.
[9] abbreviates: dose: 100.0 mg/kg/injection, schedule: Q01DX009 (ip), vehicle: saline with Tween-80.
[10] abbreviates: dose: 200.0 mg/kg/injection, schedule: Q01DX009 (ip), vehicle: saline with Tween-80.
[11] abbreviates: dose: 400.0 mg/kg/injection, schedule: Q01DX009 (ip), vehicle: saline with Tween-80.

We go through 21 compounds from PubChem BioAssay AID248 (DTP/NCI, 2004).

Values joined by “and” are separate entries in the source; they are usually repeats but may differ in a detail not shown here. Identical values can stand only once. Toxic doses and inconclusive results are not listed.

As to `O=C(O)c1cc(O)ccc1N=Nc1ccccc1`, the T/C runs as follows: (dose: 100.0 mg/kg/injection, schedule: Q01DX001 (ip), vehicle: carboxymethylcellulose (CMC)) 95 % of control; (dose: 200.0 mg/kg/injection, schedule: Q01DX001 (ip), vehicle: carboxymethylcellulose (CMC)) 95 % of control; (dose: 400.0 mg/kg/injection, schedule: Q01DX001 (ip), vehicle: carboxymethylcellulose (CMC)) 98 % of control.

Consider `CCN=C(c1ccc(NC(=O)c2ccc(C(=O)Nc3ccc(C(=NCC)N(CC)C(=O)OC)cc3)cc2)cc1)N(CC)C(=O)OC`, for which the T/C was 112 % of control (dose: 1.5 mg/kg/injection, schedule: Q01DX015 (ip), vehicle: methylcellulose (MC)) and 167 % of control (dose: 7.5 mg/kg/injection, schedule: Q01DX015 (ip), vehicle: methylcellulose (MC)).

For `CCCCN(C)c1ccc(N=Nc2cc(Cl)ccc2Cl)cc1`, the T/C is 98 % of control under setting [1] and 86 % of control under setting [2].

Regarding `COc1cc(C2=N/C(=C\c3ccccc3O)C(=O)O2)cc(OC)c1OC`, the T/C runs as follows: under setting [3], 96 % of control; under setting [4], 89 % of control; under setting [5], 89 % of control.

For the compound `CC(=O)C1=C(C)NC(C)=C(C(C)=O)C1c1ccccc1`, the T/C is 96 % of control under setting [1], 96 % of control under setting [6] and 98 % of control under setting [2].

Regarding `[N-]=[N+]=CC(=O)NCC(=O)NN=C(CO)CO`, the T/C (dose: 180.0 mg/kg/injection, schedule: Q01DX009 (ip), vehicle: water) is 118 % of control and the T/C (dose: 265.0 mg/kg/injection, schedule: Q01DX009 (ip), vehicle: water) was 122 % of control.

In the case of `O=C(Oc1c(Cl)cc(S(=O)(=O)F)cc1Cl)c1ccccc1Cl`, the T/C is, setting by setting: (dose: 100.0 mg/kg/injection, schedule: Q04DX002 (ip), vehicle: Klucel (hydroxypropylcellulose) (HPC)) 92 % of control; (dose: 200.0 mg/kg/injection, schedule: Q04DX002 (ip), vehicle: Klucel (hydroxypropylcellulose) (HPC)) 89 % of control; (dose: 400.0 mg/kg/injection, schedule: Q04DX002 (ip), vehicle: Klucel (hydroxypropylcellulose) (HPC)) 89 % of control.

As for `N\C([S-])=N/N=C\C(=N/N=C(\N)[S-])C(O)C(O)C(O)CO.[Ni+2]` (stereo not given), the T/C was 96 % of control under setting [1], 94 % of control under setting [6] and 91 % of control under setting [2].

On to `COC(=O)CC1OCC=C2CN3CCC45C6=CC(=O)C(=O)C([N+](=O)[O-])=C6NC4C1C2CC35` (stereo not given), for which the T/C is 97 % of control (dose: 5.0 mg/kg/injection, schedule: Q01DX001 (ip), vehicle: saline) and 97 % of control (dose: 10.0 mg/kg/injection, schedule: Q01DX001 (ip), vehicle: saline).

`C[N+](C)(Cc1ccc(Cl)cc1)C1c2ccccc2-c2ccccc21`: the T/C (dose: 6.0 mg/kg/injection, schedule: Q04DX003 (ip), vehicle: saline) was 93 % of control; the T/C (dose: 12.0 mg/kg/injection, schedule: Q04DX003 (ip), vehicle: saline) is 102 % of control; the T/C under setting [7] was 106 % of control; the T/C under setting [8] is 101 % of control; the T/C (dose: 25.0 mg/kg/injection, schedule: Q04DX003 (ip), vehicle: saline) was 94 % of control and 91 % of control; the T/C (dose: 50.0 mg/kg/injection, schedule: Q01DX009 (ip), vehicle: saline) was 98 % of control. The T/C (dose: 50.0 mg/kg/injection, schedule: Q04DX003 (ip), vehicle: saline) is 87 % of control.

For `CN(C)C(c1ccccc1)C(CBr)C(=O)c1ccc(Br)cc1` (stereo not given), the T/C under setting [7] was 93 % of control; the T/C (dose: 12.5 mg/kg/injection, schedule: Q04DX003 (ip), vehicle: saline with Tween-80) was 96 % of control; the T/C under setting [8] was 91 % of control; the T/C (dose: 25.0 mg/kg/injection, schedule: Q04DX003 (ip), vehicle: saline with Tween-80) is 102 % of control; the T/C (dose: 50.0 mg/kg/injection, schedule: Q04DX003 (ip), vehicle: saline with Tween-80) is 96 % of control.

With `Clc1nc2nsnc2nc1Cl`, the T/C is, setting by setting: (dose: 25.0 mg/kg/injection, schedule: Q01DX009 (ip), vehicle: saline with Tween-80) 91 % of control; (dose: 50.0 mg/kg/injection, schedule: Q01DX009 (ip), vehicle: saline with Tween-80) 110 % of control; under setting [9], 96 % of control; under setting [10], 104 % of control; under setting [11], 94 % of control.

Regarding `O=C(Nc1ccccc1O)c1ccc([N+](=O)[O-])cc1`, the T/C (dose: 100.0 mg/kg/injection, schedule: Q01DX009 (ip), vehicle: Klucel (hydroxypropylcellulose) (HPC)) was 100 % of control; the T/C (dose: 200.0 mg/kg/injection, schedule: Q01DX009 (ip), vehicle: Klucel (hydroxypropylcellulose) (HPC)) was 91 % of control; the T/C (dose: 400.0 mg/kg/injection, schedule: Q01DX009 (ip), vehicle: Klucel (hydroxypropylcellulose) (HPC)) is 93 % of control.

Take `Nc1cccc2ccc(S(=O)(=O)O)cc12`: the T/C is 106 % of control (dose: 100.0 mg/kg/injection, schedule: Q01DX009 (ip), vehicle: saline); 97 % of control (dose: 200.0 mg/kg/injection, schedule: Q01DX009 (ip), vehicle: saline); 101 % of control (dose: 400.0 mg/kg/injection, schedule: Q01DX009 (ip), vehicle: saline).

As for `Cc1ccc(NC(=O)Nc2ccccc2C(N)=O)c([N+](=O)[O-])c1`, the T/C is 90 % of control (dose: 100.0 mg/kg/injection, schedule: Q04DX003 (ip), vehicle: Klucel (hydroxypropylcellulose) (HPC)); 87 % of control (dose: 200.0 mg/kg/injection, schedule: Q04DX003 (ip), vehicle: Klucel (hydroxypropylcellulose) (HPC)); 90 % of control (dose: 400.0 mg/kg/injection, schedule: Q04DX003 (ip), vehicle: Klucel (hydroxypropylcellulose) (HPC)).

For `CCCCCCCCC1C(CCCCCCCC(=O)OC)SC(F)(F)C1(F)F` (stereo not given), the T/C is, setting by setting: under setting [9], 95 % of control; under setting [10], 93 % of control; under setting [11], 102 % of control.

As for `CC(C)(O)C1CC1`, the T/C by setting is: (dose: 100.0 mg/kg/injection, schedule: Q01DX005 (ip), vehicle: saline with Tween-80) 97 % of control; under setting [9], 88 % of control; under setting [3], 101 % of control; (dose: 200.0 mg/kg/injection, schedule: Q01DX005 (ip), vehicle: saline with Tween-80) 94 % of control; under setting [10], 94 % of control; under setting [4], 108 % of control. Moreover, the T/C (dose: 400.0 mg/kg/injection, schedule: Q01DX005 (ip), vehicle: saline with Tween-80) was 101 % of control; the T/C under setting [11] was 91 % of control; the T/C under setting [5] was 96 % of control.

As for `Clc1nc(Br)[nH]c1Cl`, the T/C by setting is: (dose: 1.56 mg/kg/injection, schedule: Q01DX009 (ip), vehicle: Klucel (hydroxypropylcellulose) (HPC)) 100 % of control; (dose: 3.12 mg/kg/injection, schedule: Q01DX009 (ip), vehicle: Klucel (hydroxypropylcellulose) (HPC)) 107 % of control; (dose: 6.25 mg/kg/injection, schedule: Q01DX009 (ip), vehicle: Klucel (hydroxypropylcellulose) (HPC)) 100 % of control and 113 % of control.

With `CC1OC(=O)C(=O)C1(C)C` (stereo not given), the T/C reads like this: (dose: 32.0 mg/kg/injection, schedule: Q01DX001 (ip), vehicle: carboxymethylcellulose (CMC)) 100 % of control; (dose: 62.5 mg/kg/injection, schedule: Q01DX001 (ip), vehicle: carboxymethylcellulose (CMC)) 102 % of control; (dose: 125.0 mg/kg/injection, schedule: Q01DX001 (ip), vehicle: carboxymethylcellulose (CMC)) 93 % of control; (dose: 250.0 mg/kg/injection, schedule: Q01DX001 (ip), vehicle: carboxymethylcellulose (CMC)) 100 % of control; (dose: 500.0 mg/kg/injection, schedule: Q01DX001 (ip), vehicle: carboxymethylcellulose (CMC)) 107 % of control.

For the compound `CCOC(=O)C(Cc1ccccc1)C1=NC(C)(C)CC(C)O1` (stereo not given), the T/C is, setting by setting: (dose: 10.0 mg/kg/injection, schedule: Q01DX009 (ip), vehicle: alcohol) 100 % of control; (dose: 200.0 mg/kg/injection, schedule: Q01DX009 (ip), vehicle: alcohol) 104 % of control; (dose: 400.0 mg/kg/injection, schedule: Q01DX009 (ip), vehicle: alcohol) 102 % of control.

Regarding `CCCCCCCCCCCCCCCCCCOC(=O)c1ccco1`, the T/C is 96 % of control (dose: 100.0 mg/kg/injection, schedule: Q01DX001 (ip), vehicle: other); 105 % of control (dose: 200.0 mg/kg/injection, schedule: Q01DX001 (ip), vehicle: other); 92 % of control (dose: 400.0 mg/kg/injection, schedule: Q01DX001 (ip), vehicle: other).
